{"source": "ChEMBL document CHEMBL3046074", "about": "“SnO2 nanoparticles mediated nontraditional synthesis of biologically active 9-chloro-6,13-dihydro-7-phenyl-5H-indolo [3,2-c]-acridine derivatives” (Med Chem Res, 2011)", "type_in_all_cases": "functional, cell-based", "key": {"Vero": {"system": "Vero", "experiment": "Cytotoxicity against Chlorocebus aethiops (African green monkey) Vero cells by MTT assay", "conditions": "Chlorocebus sabaeus"}, "HeLa": {"system": "HeLa", "experiment": "Cytotoxicity against Homo sapiens (human) HeLa cells by MTT assay"}, "Erythrocyte": {"system": "Erythrocyte", "experiment": "Hemolytic activity in Homo sapiens (human) Erythrocyte after 30 min", "conditions": "0.5 h"}}, "data": [{"smiles": "Cc1cccc2c3c([nH]c12)-c1nc2ccc(Cl)cc2c(-c2ccccc2)c1CC3", "values": [{"measurement": "IC50", "setting": "Vero", "result": "> 100", "unit": "µg/mL"}, {"measurement": "IC50", "setting": "HeLa", "result": "> 100", "unit": "µg/mL"}, {"measurement": "EC50", "setting": "Erythrocyte", "result": 458, "unit": "µg/mL"}]}, {"smiles": "CC[C@@]1(O)C(=O)OCc2c1cc1n(c2=O)Cc2cc3ccccc3nc2-1", "note": "[CAMPTOTHECIN]", "values": [{"measurement": "IC50", "setting": "Vero", "result": 58, "unit": "µg/mL"}, {"measurement": "IC50", "setting": "HeLa", "result": 0.28, "unit": "µg/mL"}, {"measurement": "EC50", "setting": "Erythrocyte", "result": 430, "unit": "µg/mL"}]}, {"smiles": "Cc1ccc2c3c([nH]c2c1)-c1nc2ccc(Cl)cc2c(-c2ccccc2)c1CC3", "values": [{"measurement": "IC50", "setting": "Vero", "result": "> 100", "unit": "µg/mL"}, {"measurement": "IC50", "setting": "HeLa", "result": "> 100", "unit": "µg/mL"}, {"measurement": "EC50", "setting": "Erythrocyte", "result": 409, "unit": "µg/mL"}]}, {"smiles": "Cc1ccc2[nH]c3c(c2c1)CCc1c-3nc2ccc(Cl)cc2c1-c1ccccc1", "values": [{"measurement": "IC50", "setting": "Vero", "result": "> 100", "unit": "µg/mL"}, {"measurement": "IC50", "setting": "HeLa", "result": "> 100", "unit": "µg/mL"}, {"measurement": "EC50", "setting": "Erythrocyte", "result": 212, "unit": "µg/mL"}]}]}
